Measurements published in patent US20070010669A1, “Novel class of cytodifferentiating agents and histone deacetylase inhibitors, and methods of use thereof” (priority 1999, published 2007).
pIC50: −log10 of the molar value. Where two headings read alike, the source gives them in different places.

Assays:
[1] = tested on: Murine erythroleukemia (MEL) cells; assay: MEL cell differentiation assay (benzidine assay; cell growth by Coulter Counter); format: cell-based; conditions: for MEL Diff % B+ / MEL Diff Cells/ml × 10^−5: Table 2; for MEL Diff Cells/ml × 10^−5: cell growth; for concentration able to induce MEL cell differentiation: FIGS. 1, 3, 4, 6; for concentration able to induce MEL cell differentiation / MEL Differentiation Opt.: 5-day culture; for MEL Differentiation % B+ / MEL Differentiation Opt.: Table 1; for MEL Differentiation % B+: benzidine-positive cells at Opt. concentration; for MEL Differentiation Opt.: optimal concentration
Procedure: (§1) The MEL cell differentiation assay was used to assess the ability of Compound 1 to induce terminal differentiation. MEL cells (logarithmically dividing) were cultured with the indicated concentrations of Compound 1. Following a 5-day culture period, cell growth was determined using a Coulter Counter and differentiation was determined microscopically using the benzidine assay to determine hemoglobin protein accumulation on a per cell basis.
as §1, with “2” for “1”, “2.” for “1.”, “period” for “period, cell growth was determined using a Coulter Counter and”
as §1, with “3” for “1”, “3.” for “1.”, “period” for “period, cell growth was determined using a Coulter Counter and”, “microsdopically” for “microscopically”
as §1, with “4” for “1”, “4.” for “1.”, “period” for “period, cell growth was determined using a Coulter Counter and”
All the compounds which were prepared were tested. […] Table 2 is compiled from experiments similar to the experiments described in Examples 7-10 above.

[2] = biological target: affinity purified human epitope-tagged (Flag) HDAC1 (Homo sapiens, UniProt Q13547); assay: Histone Deacetylase (HDAC) enzymatic activity, [3H]acetyl-labeled histone substrate; format: biochemical; parameters: Flag
Procedure: (§2) Substrate ([^3H]acetyl-labeled murine erythroleukemia cell-derived histone) was added and the samples were incubated for 20 min at 37° C. in a total volume of 30 μl. The reaction were then stopped and released acetate was extracted and the amount of radioactivity released determined by scintillation counting.
as §2, with “Substrate ([^3H]acetyl-labelled” for “Substrate ([^3H]acetyl-labeled”, “The reactions” for “The reaction”, “and relaesed” for “and released”
as §2, with “([^3H]acetyl-labelled” for “([^3H]acetyl-labeled”, “reactions” for “reaction”
The effect was assayed by incubating the enzyme preparation in the absence of substrate on ice for 20 minutes with the indicated amounts of compound. Substrate([^3H]acetyl-labeled murine erythroleukemia cell-derived histones) was added and the samples were incubated for 20 minutes at 37° C. in a total volume of 30 μl. The reactions were then stopped and released acetate was extracted and the amount of radioactivity released determined by scintillation counting.

HDAC = HDAC (Homo sapiens, UniProt Q13547); assay: Inhibition of the enzyme HDAC (Examples 12 and 13); format: biochemical; conditions: Example 12; read-out: ID50 as inhibitor of HDAC
[3] = Table 2, unit nM, read-out: HDAC inh ID50
[4] = Table 2, unit μM, read-out: HDAC inh ID50
[5] = FIGS. 2, 5, 7, read-out: ID50 of HDAC1 enzymatic activity
[6] = Table 2, unit column μm, read-out: HDAC inh ID50

Chain of affinity purified human epitope-tagged (Flag) HDAC1 (Q13547 whole entry): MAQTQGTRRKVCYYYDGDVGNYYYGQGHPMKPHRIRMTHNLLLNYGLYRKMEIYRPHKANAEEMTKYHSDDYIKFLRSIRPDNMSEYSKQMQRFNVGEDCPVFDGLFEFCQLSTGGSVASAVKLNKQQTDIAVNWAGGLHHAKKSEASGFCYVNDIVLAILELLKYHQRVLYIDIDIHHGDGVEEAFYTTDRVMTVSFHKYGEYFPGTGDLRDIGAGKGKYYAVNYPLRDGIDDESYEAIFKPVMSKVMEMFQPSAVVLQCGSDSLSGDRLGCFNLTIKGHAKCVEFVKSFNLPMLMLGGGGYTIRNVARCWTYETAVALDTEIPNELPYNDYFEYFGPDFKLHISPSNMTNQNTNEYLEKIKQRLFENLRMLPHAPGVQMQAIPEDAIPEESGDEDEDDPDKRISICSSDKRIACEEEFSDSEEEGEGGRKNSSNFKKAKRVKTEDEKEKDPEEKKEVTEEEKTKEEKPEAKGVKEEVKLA
Chain of HDAC (Q13547 whole entry): as above

IC50 [2, 3] | SMILES | MEL Diff % B+ [1] | MEL Diff Cells/ml × 10^−5 [1] | further results
100 nM | O=C(CCCCCC(NC(=O)OCc1ccccc1)C(=O)Nc1ccccc1)NO (stereo not drawn) [Compound 3, N-benzyloxycarbonyl-(L)-α-aminosuberateanilide-ω-hydroxamic acid] | 16% | 3.3 Cells/ml × 10^−5 | –
50 nM | O=C(CCCCC[C@H](NC(=O)c1cnc2ccccc2c1)C(=O)Nc1ccccc1)NO [Compound 664] | 33% | 22 Cells/ml × 10^−5 | –
100 nM | O=C(CCCCCC(C(=O)Nc1cccc2ncccc12)C(=O)Nc1cccc2ncccc12)NO [Compound 691] | 0% | No inh | –
150 nM | O=C(CCCCCC(CCCCCC(=O)NO)(C(=O)Nc1cccc2cccnc12)C(=O)Nc1cccc2cccnc12)NO [Compound 685] | 20% | 1.0 Cells/ml × 10^−5 | –
100 nM | O=C(CCCCCCC(=O)Nc1cccc2cccnc12)NO [Compound 668] | 11% | 4.7 Cells/ml × 10^−5 | –
50 nM | O=C(CCCCCC(C(=O)Nc1cccc2cccnc12)C(=O)Nc1cccc2cccnc12)NO [Compound 667] | 27% | 2 Cells/ml × 10^−5 | –
50 nM | O=C(CCCCC[C@H](NC(=O)c1cccnc1)C(=O)Nc1ccccc1)NO (stereo in doubt) [Compound 2, N-Nicotinoyl-(L)-α-aminosuberoylanilide-ω-hydroxamic acid] | 27% | – | –
50 nM | O=C(CCCCC[C@H](NC(=O)c1cccs1)C(=O)Nc1ccccc1)NO [Compound 665] | 24% | 30 Cells/ml × 10^−5 | –
5 nM | O=C(CCCCCC(C(=O)Nc1cnc2ccccc2c1)C(=O)Nc1cnc2ccccc2c1)NO [Compound 677] | 23% | 4.5 Cells/ml × 10^−5 | –
20 nM | O=C(CCCCC[C@@H](NC(=O)c1ccccc1)C(=O)Nc1cccc2cccnc12)NO [Compound 661] | 7% | – | –
200 nM | O=C(CCCCCC(C(=O)Nc1cccc2cccnc12)(C(=O)Nc1cccc2cccnc12)c1ccccc1)NO [Compound 681] | 3% | 2.5 Cells/ml × 10^−5 | –
150 nM | O=C(/C=C/c1cccc(C(C(=O)Nc2cccc3cccnc23)C(=O)Nc2cccc3cccnc23)c1)NO [Compound 690] | 38% | – | –
150 nM | O=C(CCCCCC(C(=O)Nc1ccccc1)(C(=O)Nc1ccccc1)c1ccccc1)NO [Compound 682] | 8% | 1.1 Cells/ml × 10^−5 | –
100 nM | O=C(CCCCCC(C(=O)Nc1ccccc1)C(=O)Nc1ccccc1)NO [Compound 666] | 31% | 28 Cells/ml × 10^−5 | –

The next lines start with the molecule.

SMILES | IC50 [2, 3] | MEL Diff % B+ [1] | MEL Diff Cells/ml × 10^−5 [1] | further results
OC(c1ncc[nH]1)(c1ncc[nH]1)c1nc(CCCCCc2cnc(C(O)(c3ncc[nH]3)c3ncc[nH]3)[nH]2)c[nH]1 [Compound 674] | – | 0% | Dead at 25 μM | IC50 [2, 4]: 50000 nM
O=C(CCCCC[C@H](NC(=O)c1ccccc1)C(=O)Nc1ccccc1)NO [Compound 1, N-Benzoyl-(L)-α-aminosuberoylanilide-ω-hydroxamic acid] | – | 44% | 9 Cells/ml × 10^−5 | concentration able to induce MEL cell differentiation [1]: 200 nM; MEL Differentiation % B+ [1]: 44%; MEL Differentiation Opt. [1]: 200 nM; pIC50 [2, 5]: 9.00
O=C(CCCCC[C@@H](NC(=O)c1ccccc1)NC(=O)C1CCCCC1)NO [Compound 663] | 100 nM | 43% | 7 Cells/ml × 10^−5 | –
CC(=O)SCCCCCC(=O)Nc1ccccc1 [Compound 675] | – | 0% | No inh | IC50 [2, 4]: > 100000 nM
CS(=O)(=O)NCCCCCC(=O)Nc1ccccc1 [Compound 662] | – | 0% | – | IC50 [2, 4]: > 100000 nM
O=C(CCCCC[C@H](NC(=O)OCc1ccccc1)C(=O)Nc1ccccc1)NO [Compound 3, N-benzyloxycarbonyl-(L)-α-aminosuberateanilide-ω-hydroxamic acid] | – | – | – | concentration able to induce MEL cell differentiation [1]: 400 nM; MEL Differentiation % B+ [1]: 16%; MEL Differentiation Opt. [1]: 400 nM; pIC50 [2, 5]: 7.00
O=C(CCCCCCn1ccnc1)Nc1ccccc1 [Compound 684] | – | 0% | No inh | –
O=C(Nc1ccccc1)C(CCCCCC(=O)C(F)(F)F)C(=O)Nc1ccccc1 [Compound 669] | – | 11% | 16.0 Cells/ml × 10^−5 | IC50 [2, 4]: 10000 nM
O=C(/C=C/c1cccc(C(C(=O)Nc2ccccc2)C(=O)Nc2ccccc2)c1)NO [Compound 77, 3-(malonyldi(phenylamide)) cinnamyl hydroxamic acid] | – | 9% | 9.0 Cells/ml × 10^−5 | –
O=C(O)CCCCC[C@@H](NC(=O)c1cccnc1)C(=O)Nc1ccccc1 [Compound 657] | – | 0% | – | pIC50 [2, 6]: < 4.00
O=C(/C=C/c1cccc(CC(=O)Nc2ccccc2)c1)NO [Compound 689] | 200 nM | 48% | – | –
O=C(CCCCCn1ccnc1)Nc1ccccc1 [Compound 679] | – | 0% | No inh | IC50 [2, 4]: > 100000 nM
NS(=O)(=O)CCCCCCC(=O)Nc1ccccc1 [Compound 686] | – | 0% | No inh | –
CC(=O)SCCCCCCCC(=O)Nc1ccccc1 [Compound 680] | – | – | – | IC50 [2, 4]: > 100000 nM
O=C(O)CCCCC[C@@H](NC(=O)c1ccccc1)C(=O)Nc1ccccc1 [Compound 656] | – | 0% | – | pIC50 [2, 6]: < 4.00
O=C(CCCCC[C@H](NC(=O)c1cccnc1)C(=O)Nc1ccccc1)NO [Compound 2, N-Nicotinoyl-(L)-α-aminosuberoylanilide-ω-hydroxamic acid] | – | – | – | concentration able to induce MEL cell differentiation [1]: 800 nM; MEL Differentiation % B+ [1]: 27%; MEL Differentiation Opt. [1]: 800 nM
NS(=O)(=O)CCCCCC(=O)Nc1ccccc1 [Compound 678] | – | 0% | No inh | IC50 [2, 4]: > 100000 nM
O=C(CCCCCC(C(=O)Nc1cccc2cccnc12)C(=O)Nc1cccc2cccnc12)NO [Compound 7] | – | – | – | pIC50 (HDAC): 7.30
O=C(CCCCCCC(=O)Nc1nccs1)Nc1ccccc1 [Compound 693] | – | 0% | No inh | IC50 [2, 4]: > 100000 nM
O=C(CCCCCCC(=O)C(F)(F)F)Nc1ccccc1 [Compound 670] | – | – | 13.0 Cells/ml × 10^−5 | –
COP(=O)(NCCCCCC(=O)Nc1ccccc1)OC [Compound 673] | – | 0% | No inh | –
O=C(/C=C/c1cccc(C(=O)Nc2ccccc2)c1)NO [Compound 687] | – | 0% | No inh | IC50 [2, 4]: 200000 nM
O=C(O)CCCCCC(NC(=O)OCc1ccccc1)C(=O)Nc1cccc2cccnc12 (stereo not shown) [Compound 659] | – | 0% | – | IC50 [2, 4]: 10000 nM
O=C(CCCCCC(C(=O)Nc1ccc2ncccc2c1)C(=O)Nc1ccc2ncccc2c1)NO [Compound 692] | – | 27% | – | –
CN(C)c1cccc2cc(S(=O)(=O)NCCCCCC(=O)NO)ccc12 [Compound 671] | 200 nM | 35% | 12.5 Cells/ml × 10^−5 | –
O=C(CCCCCBr)Nc1ccccc1 [Compound 676] | – | 0% | No inh | –
O=C(CCCCCCC(=O)Nc1cc[nH]n1)Nc1ccccc1 [Compound 688] | – | 0% | No inh | IC50 [2, 4]: > 100000 nM
